# Assays:
# CL187 = test: Cell viability assay (CCK-8); assay type: cell-based, Human
# Protocol: (§1) PTE or RE were dissolved in DMSO and diluted with culture medium to 1–100 μM. The final concentration of DMSO was less than 0.1%, and 0.1% DMSO as negative control. CPT, as Top1 inhibitor, was diluted to 0.5 μM [36, 37], and FM, as Tdp1 inhibitor was diluted to 25 μM [38]. Exponentially growing cells were seeded in 96-well plates (5 × 10^3 cells/well) for 12 h. Various drugs were added separately and incubated for 24, 48, and 72 h. Cell viability was determined by CCK-8 (Beyotime Biotechnology, Shanghai, China) assay. […]
# (§2) The drug concentration required for inhibiting cell proliferation by 50% (IC50) was determined by interpolation from dose-response curves.
# COLO205 = test: Cell viability assay (CCK-8); assay type: cell-based, Human
# Protocol: as §1, §2
# HCT-116 = test: Cell viability assay (CCK-8); assay type: cell-based, Human
# Protocol: as §1, §2
# HCT-8 = test: Cell viability assay (CCK-8); assay type: cell-based, Human
# Protocol: as §1, §2
# LoVo = test: Cell viability assay (CCK-8); assay type: cell-based, Human
# Protocol: as §1, §2
# HCoEpiC- = test: Proliferation of non-tumor cells (CCK-8); assay type: cell-based
# Protocol: (§3) The final concentration of DMSO was less than 0.1%, and 0.1% DMSO as negative control. CPT, as Top1 inhibitor, was diluted to 0.5 μM [36, 37], and FM, as Tdp1 inhibitor was diluted to 25 μM [38]. Exponentially growing cells were seeded in 96-well plates (5 × 10^3 cells/well) for 12 h. Various drugs were added separately and incubated for 24, 48, and 72 h. Cell viability was determined by CCK-8 (Beyotime Biotechnology, Shanghai, China) assay. […]
# as §2
# HFL-1 = test: Proliferation of non-tumor cells (CCK-8); assay type: cell-based; conditions: Homo sapiens, HFL1
# Protocol: as §3, §2
# L02 = test: Proliferation of non-tumor cells (CCK-8); assay type: cell-based; conditions: Homo sapiens
# Protocol: as §3, §2
# Tdp1-over CL187 cells = test: Cell viability of Tdp1-overexpressing cells; assay type: cell-based, Human
# Protocol: CL187 cells were cultured on 6-cm dishes at 37 °C for 24 h. The plasmid (2.5 μg) was diluted with 125 μL serum-free medium Opti-MEM, mixed gently, and incubated at room temperature for 5 min. Lipo 3000 (Invitrogen, Waltham, MA, USA) were diluted with 125 μL serum-free medium Opti-MEM, mixed and incubated for 5 min. Mixed the plasmid and Lipo 3000, incubated at room temperature for 20 min, the mixture was added to CL187 cells, the Tdp1 overexpressed plasmid were transfected into CL187 cells.
# PTE or RE were dissolved in DMSO and diluted with culture medium to 1–100 μM. The final concentration of DMSO was less than 0.1%, and 0.1% DMSO as negative control. CPT, as Top1 inhibitor, was diluted to 0.5 μM [36, 37], and FM, as Tdp1 inhibitor was diluted to 25 μM [38]. Exponentially growing cells were seeded in 96-well plates (5 × 10^3 cells/well) for 12 h. […] Cell viability was determined by CCK-8 (Beyotime Biotechnology, Shanghai, China) assay. Cell viability and inhibition rate were calculated with the following formulae:Cell viability (%) = [OD450 (sample)/OD450 (control)] × 100(1) Inhibition rate (%) = […] − cell viability (%)(2)
# as §2
# P53 = test: Western blot for P53; assay type: cell-based, Human; conditions: CL187 cells, 12 h
# Protocol: CL187 cells were treated with RE or PTE for 6 or 12 h, collected, and placed into lysis buffer (KeyGEN BioTECH, Nanjing, China). The total protein content in the cell lysates was measured using a BCA kit. Equivalent amount of total protein (30 μg) was loaded onto 10% SDS-PAGE gel. Electrophoresis was performed at 80 V for 25 min. After the sample went through concentrated gel, the voltage was adjusted to 120 V. Electrophoresis was stopped when the bromophenol blue band approached the bottom of the gel. After being transferred to PVDF membranes, the samples were incubated separately with 3 types of primary antibodies Top1, Tdp1, and P53 rabbit mAb (CST, Boston, MA, USA), followed by the incubation with secondary antibody goat anti-rabbit IgG (HRP)-conjugated (1:3000). ECL kit (New Cell and Molecular Biotech, Suzhou, China) was used for color development, and the images were collected by the gel imaging system (Tanon-5200, Shanghai, China).
# siRNA-Tdp1 CL187 cells = test: Cell viability of Tdp1-silenced cells; assay type: cell-based; conditions: Homo sapiens, 36 h, siRNA-Tdp1 CL187, 36 h
# Top1 in CL187 cells = Top1 in CL187 cells (Homo sapiens, UniProt P11387); test: Intracellular Top1 enzyme activity assay; assay type: cell-based; parameters: endogenous in cells; host or cells: CL187 cells (nuclear, mitochondrial and cytoplasmic extracts); conditions: CL187 cells treated 6 h; CPT at 50 μM
# Protocol: CL187 cells were treated with different concentrations of drugs for 6 h. The supernatant was discarded, and the cells were collected. The extracts of cytoplasm, mitochondria, and nucleus were obtained by the same method as described in Section 2.4.7. The protein concentration of each extract was detected by BCA kit. Enzyme activity reaction was carried out by using 125 ng super helical DNA (pHOT-1) and cell extract. The protein concentration of the extract was guaranteed to be the same in each group. The mixture solution of the pHOT-1 and the cell extract was added into the reaction buffer and incubated for 30 min at 37 °C. The reaction was terminated with loading buffer. The agarose gel electrophoresis was performed, and the images were collected.
# Sequence of Top1 in CL187 cells (P11387 2-765): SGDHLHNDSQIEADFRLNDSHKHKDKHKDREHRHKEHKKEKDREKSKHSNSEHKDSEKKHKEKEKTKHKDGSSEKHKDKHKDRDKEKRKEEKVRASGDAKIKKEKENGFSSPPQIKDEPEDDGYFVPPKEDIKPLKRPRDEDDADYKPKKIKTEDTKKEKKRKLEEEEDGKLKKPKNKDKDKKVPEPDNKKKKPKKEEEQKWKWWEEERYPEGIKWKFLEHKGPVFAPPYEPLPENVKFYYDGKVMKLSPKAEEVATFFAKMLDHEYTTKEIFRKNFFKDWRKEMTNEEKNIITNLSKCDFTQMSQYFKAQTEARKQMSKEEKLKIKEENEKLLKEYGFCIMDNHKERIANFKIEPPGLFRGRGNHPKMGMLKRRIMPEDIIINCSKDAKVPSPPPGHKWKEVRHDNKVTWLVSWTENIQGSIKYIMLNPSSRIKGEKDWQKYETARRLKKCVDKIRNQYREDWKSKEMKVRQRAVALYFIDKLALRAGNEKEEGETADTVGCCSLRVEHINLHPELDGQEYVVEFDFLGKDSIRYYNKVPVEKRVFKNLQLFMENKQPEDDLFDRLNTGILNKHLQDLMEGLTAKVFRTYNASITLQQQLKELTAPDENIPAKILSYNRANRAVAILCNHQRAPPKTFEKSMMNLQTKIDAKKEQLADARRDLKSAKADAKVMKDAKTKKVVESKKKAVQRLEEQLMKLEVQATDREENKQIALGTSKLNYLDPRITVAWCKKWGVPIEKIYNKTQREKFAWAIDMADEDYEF
smiles,measurement,setting,value
"COc1cc(/C=C/c2ccc(O)cc2)cc(OC)c1 [PTE, 3,5-dimethoxy-4′-hydroxy-trans-stilbene]",IC50,"CL187; CL187, 72 h",< 30 µM
same,IC50,"CL187; CL187, 72 h, listed as Pterostilbene",14.4 ± 2.93 µM
same,IC50,"CL187; Homo sapiens, 24 h, CL187, 24 h",24.2 ± 11.6 µM
same,IC50,"CL187; Homo sapiens, 48 h, CL187, 48 h",13.8 ± 4.7 µM
same,IC50,"COLO205; COLO205, 72 h",< 30 µM
same,IC50,"COLO205; COLO205, 72 h, listed as Pterostilbene",13.6 ± 6.1 µM
same,IC50,"COLO205; Homo sapiens, COLO 205, 24 h, COLO205, 24 h",44.4 ± 16.7 µM
same,IC50,"COLO205; Homo sapiens, COLO 205, 48 h, COLO205, 48 h",24.5 ± 9.13 µM
same,IC50,"HCT-116; HCT-116, 72 h, listed as Pterostilbene",21.4 ± 6.79 µM
same,IC50,"HCT-116; Homo sapiens, HCT-116, 24 h",31.2 ± 10.2 µM
same,IC50,"HCT-116; Homo sapiens, HCT-116, 48 h",15.4 ± 4.49 µM
same,IC50,"HCT-116; Homo sapiens, HCT-116, 72 h",< 30 µM
same,IC50,"HCT-8; HCT-8, 72 h, listed as Pterostilbene",25 ± 6.62 µM
same,IC50,"HCT-8; Homo sapiens, HCT-8, 24 h",29.9 ± 10.6 µM
same,IC50,"HCT-8; Homo sapiens, HCT-8, 48 h",25.4 ± 8.25 µM
same,IC50,"HCT-8; Homo sapiens, HCT-8, 72 h",< 30 µM
same,IC50,LoVo; 72 h,< 30 µM
same,IC50,"LoVo; 72 h, listed as Pterostilbene",12 ± 4.01 µM
same,IC50,"LoVo; Homo sapiens, 24 h",106 ± 28.6 µM
same,IC50,"LoVo; Homo sapiens, 48 h",14.2 ± 4.84 µM
same,IC50,HCoEpiC-; 24 h,444 µM
same,IC50,HCoEpiC-; 48 h,250 µM
same,IC50,HCoEpiC-; 72 h,83.4 µM
same,IC50,"HFL-1; HFL-1, 24 h",339 µM
same,IC50,"HFL-1; HFL-1, 48 h",315 µM
same,IC50,"HFL-1; HFL-1, 72 h",130 µM
same,IC50,"L02; L02, 24 h",478 µM
same,IC50,"L02; L02, 48 h",248 µM
same,IC50,"L02; L02, 72 h",148 µM
same,IC50,"Tdp1-over CL187 cells; Homo sapiens, 24 h, Tdp1-over CL187, 24 h",63 ± 13.6 µM
same,IC50,"Tdp1-over CL187 cells; Homo sapiens, 36 h, Tdp1-over CL187, 36 h",41.1 ± 7.22 µM
same,IC50,"Tdp1-over CL187 cells; Homo sapiens, 48 h, Tdp1-over CL187, 48 h",20.3 ± 3.13 µM
same,IC50,"Tdp1-over CL187 cells; Homo sapiens, 72 h, Tdp1-over CL187, 72 h",19.1 ± 4.08 µM
same,IC50,"Tdp1-over CL187 cells; Tdp1-over CL187, 72 h",~20 µM
same,expression of P53 (WB),P53,promoted the expression of P53
same,IC50,siRNA-Tdp1 CL187 cells,34.2 ± 7.33 µM
same,Top1 enzyme activity in the nucleus,Top1 in CL187 cells,significantly inhibited

# Reference: article PMC8391236, “Effect of Pterostilbene, a Natural Derivative of Resveratrol, in the Treatment of Colorectal Cancer through Top1/Tdp1-Mediated DNA Repair Pathway” (Cancers, 2021)
